Assay results from patent publication US5304474A, “Hydrophobic peptide esters and amides” (Board of Regents, The University of Texas System, priority 1991, dated 1994).

Key:
[1] = system: MP-enriched adherent cells (AC); experiment: 51Cr release toxicity assay; assay type: cell-based, human
Method: (§1) In some experiments, toxicity of Leu-Leu-OMe for a variety of cell populations was assessed by ^51 Cr release In assays where cells obtained from suspension culture were to be used, cells were labeled with Na2^51 CrO4 (ICN, Plainview, N.Y.) for 60-90 minutes at 37° C. and then washed three times. Cells were then suspended in PBS (2.5×10^6 /ml) and incubated in microtiter plates, 50 microL/well with indicated concentrations of Leu-Leu-OMe for 15 minutes at room temperature. […] Following ^51 Cr labeling, wells were thoroughly washed and varying concentrations of Leu-Leu-OMe added in 50 microL PBS and the plates incubated for 15 minutes at room temperature.
(§2) Following such initial serum-free incubations, 200 microL/well of medium RPMI containing 10% FBS were added and the plates incubated for another 4 hours prior to removal of 100 microliters of supernatant. Radioactivity in the supernatant was measured in an auto-gamma scintillation spectrometer (Packard Instrument Co., Downers Grove, Ill.). The percent specific release was calculated from the formula: [formula] in which maximal release refers to cpm obtained in wells containing 50% lysing agent (American Scientific Products, McGraw Park, Ill.) and spontaneous release refers to cpm released by cells incubated in control medium in the absence of Leu-Leu-OMe or the lysing agent.
(§3) In developing the data expressed in FIG. 7, cells (2.5×10^6 /ml) were exposed to the indicated concentrations of Leu-Leu-OMe for 15 minutes at room temperature, then specific ^51 Cr release during the next four hours was assessed.

[2] = system: T8-enriched population; experiment: 51Cr release toxicity assay; assay type: cell-based, human
Method: as §1, §2, §3

[3] = system: T4 enriched T cells; experiment: 51Cr release toxicity assay; assay type: cell-based, human
Method: as §1, §2, §3

[4] = system: CTL precursors; experiment: Elimination of cytotoxic T lymphocytes (6 day MLC, lysis of allogeneic stimulator lymphoblasts); assay type: cell-based, human
Method: Experiments were also designed to assess the relative sensitivity of NK and CTL to Leu-Leu-OMe. In the studies detailed in FIGS. 8 and 9, cytotoxicity assays were performed over a broad range of E:T ratios and units of lytic activity arising from equal numbers of responding lymphocytes were calculated and compared. […] Only after exposure to greater than 250 micromolar Leu-Leu-OMe were all CTL precursors eliminated.
Non-adherent lymphocytes (2.5×10^6 /ml) were incubated with the indicated concentrations of Leu-Leu-OMe for 15 minutes. Cells were then washed and either placed in mixed lymphocyte culture or assayed for specific lysis of K562 cells (NK). After 6 day MLC, cells were assayed for specific lysis of allogeneic stimulator lymphoblasts (CTL) or K562 (AcNK). Data are expressed as percent of control lytic units (mean+SEM, n=6).
Both values were also higher than the mean concentration of Leu-Leu-OMe required to diminish spontaneous NK lytic activity by 75% (35 micromolar±4 micromolar). […] Thus, only after MLC activation did CTL display a sensitivity to Leu-Leu-OMe toxicity that was equal to that of NK cells.

[5] = system: CD16(+), CD4(+), CD8(+) lymphocytes; experiment: Lymphocyte subsets of PBL stained with alpha-CD16, alpha-CD4, alpha-CD8; assay type: cell-based, human
Excerpt: Thus, as previously reported (see prior Examples and J. Immunol. 1986; 136:1038-1048), exposure of human PBL to 250 micro-M Leu-Leu-OMe results in loss of all CD16(+) NK cells, and the majority of CD8(+) T cells and thereby results in reciprocal enrichment of the CD4(+) T cell subset which is largely Leu-Leu-OMe resistant (see Table 13).

[6] = system: spleen cells; experiment: Spleen cell H-2 phenotype of transplanted mice (chimerism); assay type: in vivo, B6→B6D2F1 mice; details: recipients of treated cells, up to 275 d after transplantation
Method: Spleen cells from control mice (normal B6 or B6D2F1) and long-term BMTx survivors (B6→B6D2F1) were depleted of B cells by panning on goat anti-mouse immunoglobulin-coated petri dishes (15). Aliquots of B cell-depleted spleen cells were incubated either with antibody 30-5-7.S (anti-L^d), antibody 28-18-3.S (anti-k^b), or with a relevant isotype control antibody for 30 min at 4° C. Cells were then washed and incubated with a fluorescein isothiocyanate-labeled goat anti-mouse immunoglobulin (GAMIG-FITC, Cappell Laboratories, Cochranville, Pa.) and analyzed on a flow cytometer (Ortho system 50 HH, Ortho Diagnostics, Raritan, N.J.).
To see whether the donor hemopoietic system remained dominant over that of the irradiated recipient, we characterized the H-2 phenotype of spleen cells from the mice used in the survival experiments at various times after transplantation. Spleen cells from normal B6 (donor, H-2^b) and B6D2F1 (recipient, H-2^b /H-2^d) mice served as controls.

[7] = system: graft vs. host disease (GVHD); experiment: Murine bone marrow transplantation, donor inoculum treated in vitro: survival and GVHD; assay type: in vivo, B6→B6D2F1 mice
Method: Female, 8-16-wk-old, C57BL/6J (B6) and (C57BL/6J x DBA/2J)F1 mice (B6D2F1) were used as donors and recipients, respectively. For some experiments B6 donors were […] 70×10^6 cells/ml either in phosphate-buffered saline (PBS) or in Leu-Leu-OMe dissolved in PBS. Leu-Leu-OMe was synthesized from leucyl-leucine as previously described (10). After a 15 min incubation at room temperature, the cells were washed once, suspended in Hanks' balanced salt solution, counted, and infused via a lateral tail vein into irradiated (950 cGy) F1 recipients.
Survival times were measured from the day of transplantation to the day of death. Deaths occurring within 8 d of transplantation were considered to be the result of radiation-induced gastroenteritis and were excluded. The nonparametric Mann-Whitney test was used to determine whether the median survival times (MST) differed between groups (14).
Organs of recipient mice were fixed in 10% buffered formalin. Sections were stained with Hematoxylin and Eosin.

[8] = system: B6 spleen cells (NK, allospecific cytotoxic T cells); experiment: Cytotoxic function of B6 spleen cells after incubation; assay type: cell-based, murine

In the case of `COC(=O)[C@H](CC(C)C)NC(=O)[C@@H](N)CC(C)C` [Leu-Leu-OMe, L-leucyl-L-leucine methyl ester], the 51Cr release ([1]; 25-50 micromolar) was “minimal ^51 Cr release”, the “Leu--Leu--OMe Sensitivity (LD50)” value ([1]; M--phi) was 75 micro-M and the 51Cr release ([2]; N-SRBC positive cells depleted of OKT4 positive cells) was “produced high levels of ^51 Cr release”. The “Leu--Leu--OMe Sensitivity (LD50)” value ([2]; T-8 Cells) was 250 micro-M, the 51Cr release ([3]; 1000 micromolar) was “caused minimal ^51 Cr release” and the “Leu--Leu--OMe Sensitivity (LD50)” value ([3]; T4 Cells) was > 500 micro-M. For the same compound, the “CTL precursors still present, of control levels” value ([4]; 100 micromolar, 15 minutes (FIG. 8)) was “greater than 50%”, the “concentration above which all CTL precursors eliminated” value ([4]; 15 minutes (FIG. 8)) was “greater than 250 micromolar” and the “sensitivity of CTL and AcNK following activation” value ([4]; after 6 day MLC, 15 minutes incubation (FIG. 9)) was “became identical in sensitivity to Leu-Leu-OMe”. For the same compound, the “mean concentration required to diminish lytic activity by 75%” value ([4]; elimination of CTL precursors) was 123 ± 25 µM, the “Cells stained with alpha-CD16” value ([5]; single agent (Leu-Leu-OMe 250 micro-M or Gly-Phe-CHN2 10^-6 M), Nil 8.1) was < 0.1 and the “Cells stained with alpha-CD8” value ([5]; single agent, Nil 18.8) was 7.0. The “Cells stained with alpha-CD4” value ([5]; single agent, Nil 60.3) was 87.2, the “reactivity of spleen cells with anti-H-2^b” value [6] was > 95% and the “reactivity of spleen cells with anti-H-2^d” value [6] was < 1%. For the same compound, the GVHD-mediated tissue injury ([7]; 25×10^6 cells treated with 250 micro-M) was “had no evidence of cutaneous GVHD”, the GVHD-mediated tissue injury ([7]; 25×10^6 donor cells treated with 125 micro-M) was “manifested evidence of acute GVHD, although at somewhat diminished intensity” and the GVHD-mediated tissue injury ([7]; 50×10^6 treated cells) was “manifested acute cutaneous GVHD”. For the same compound, the “mice surviving >90 d (long-term survivors)” value ([7]; immune donors, 37×10^6 donor cells treated with 250 micro-M) was “three of nine”, the “median survival time (MST)” value ([7]; immune donors, 37×10^6 donor cells treated with 250 micro-M, untreated 11 d) was 49 days and the “median survival time (MST)” value ([7]; naive donors, 25×10^6 donor cells treated with 125 micro-M, untreated 19 d) was 41.5 days. The “survival of all recipients” value ([7]; naive donors, 25×10^6 donor cells treated with 250 micro-M, untreated MST 19 d) was > 120 days, the “survival of all recipients” value ([7]; naive donors, 50×10^6 donor cells treated with 250 micro-M, untreated MST 14 d) was > 200 days and the “NK function of B6 spleen cells” value ([8]; 100 micro-M) was “complete loss of NK function”. The “generation of allospecific cytotoxic T cells” value ([8]; 100 micro-M) was “only partial reduction of the generation of allospecific cytotoxic T cells” and the “cells with cytotoxic potential that remain” value ([8]; single treatment with 250 micro-M) was < 5%.
